One experiment deals with T1, gp120/DC-SIGN-Fc (Homo sapiens, UniProt Q9NNX6).
T1 construct: fused on or other part: Human IgG Fc fused on as a dimerising and detection handle (detected with anti-human IgG, Fc-gamma-specific antibody)
T1 sequence (Q9NNX6 250-404 limits assumed): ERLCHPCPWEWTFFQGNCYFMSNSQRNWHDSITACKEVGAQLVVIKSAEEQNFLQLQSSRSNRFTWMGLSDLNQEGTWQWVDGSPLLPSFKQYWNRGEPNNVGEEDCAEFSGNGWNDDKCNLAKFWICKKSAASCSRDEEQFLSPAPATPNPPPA
As to the kind of experiment: gp120/Fc-DC-SIGN competition ELISA. The experiment is classed as binding. Here is the method: It was then determined whether oligomannose dendrons are able to interfere with the binding between gp120 and DC-SIGN, which is likely to be a key step for dendritic cell-mediated CD4 T cell HIV infection. Gp120/Fc-DC-SIGN ELISA was performed, in a similar setting as gp120/2G12 ELISA, to evaluate the inhibition activity of glycodendrons 14 and 17.
Competition ELISA for Fc-DC-SIGN. DC-SIGN competitions were done with 1.5 μg/ml Fc-DC-SIGN as described above with a few modifications since DC-SIGN is a C-type lectin that requires Ca^2+ for binding. A Tris (10 mM, pH7.8) buffer containing NaCl (150 mM), i.e., TBS, replaced PBS in the abovementioned buffers used for coating, blocking and washing. After the initial wash step, CaCl2 (10 mM) was included in the blocking solution and all subsequent incubation and wash buffers until substrate addition. DC-SIGN-Fc binding was detected with an alkaline phosphatase-conjugated goat anti-human IgG, Fcγ-specific, Ab (Jackson ImmunoResearch Laboratories, Inc.) diluted 1:1000.

A further experiment concerns the target 2G12 complex. The experiment is described as follows: KD,surf of 2G12 complex on glycan-printed normal-NHS-density slide. It is filed as binding. To be noted: immobilized on normal-NHS-density slide; saturated value. Here is the method: To further test its multivalent efficacy, 17 was immobilized onto a normal-NHS-density slide (FIG. 3d) at varying printing concentrations.
Second generation Man9 dendron 17 on normal NHS density slide: Similar procedure as for normal density Man4 slide was used. Derivative of 17 with a linker connecting free amine was used for printing. The printing concentrations are 100, 80, 60, 40, 20, 10, 8, 6, 4, 2, 1, 0.8, 0.6, 0.4, 0.2, 0.1, 0.08, 0.06, 0.04, and 0.02 μM. The KD,surf of 2G12 complex was obtained (see Table 4) as previously described.
Determination of KD,surf of glycodendron 17. The procedure is the same as that disclosed in Liang et al., “Quantitative analysis of carbohydrate-protein interactions using glycan microarrays: determination of surface and solution dissociation constants.” J Am Chem Soc 129:11177-11184 (2007), which is hereby incorporated by reference as if fully disclosed herein.

The IC50 is the concentration that gives 50% inhibition. Higher therefore signals weaker potency. Broadly, the Kd is a measure of binding affinity in units of concentration.

In turn, `O=C[C@@H](O)[C@@H](O)[C@H](O)[C@H](O)CO` [D-Mannose, reference compound] registered an IC50 on gp120/DC-SIGN-Fc of 8.5 mM. Further, the inhibition activity range entry at gp120/DC-SIGN-Fc (gp120/Fc-DC-SIGN ELISA) is recorded as “millimolar range”. Turning to Man9 [Compound 2], binding on 2G12 complex was characterised by a dissociation constant (Kd) of 0.00083 mM.

The record behind these values is patent publication US20090232831A1, “METHODS AND COMPOSITIONS FOR THE TREATMENT OR PREVENTION OF HUMAN IMMUNODEFICIENCY VIRUS INFECTION” (priority 2008, published 2009).
